# Legend:
# barnyardgrass [1] = experiment: Test A preemergence; format: in vivo, Echinochloa crus-galli; settings: 0 to 100 scale (0 no effect, 100 complete control)
# Procedure, shortened: (§1)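 For preemergence, seeds were sown in a loam soil-sand blend and given a directed soil spray of test chemical in a non-phytotoxic solvent mixture with surfactant. For postemergence, plants in pots of the same blend were sprayed with the same formulation at the one- to two-leaf stage, 2 to 10 cm tall.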
# crabgrass, large [2] = experiment: Test A preemergence; format: in vivo, Digitaria sanguinalis; settings: 0 to 100 scale (0 no effect, 100 complete control)
# Procedure, shortened: as §1
# foxtail, giant [3] = experiment: Test A preemergence; format: in vivo, Setaria faberii; settings: 0 to 100 scale (0 no effect, 100 complete control)
# Procedure, shortened: as §1
# morningglory [4] = experiment: Test A preemergence; format: in vivo, Ipomoea spp.; settings: 0 to 100 scale (0 no effect, 100 complete control)
# Procedure, shortened: as §1
# pigweed [5] = experiment: Test A preemergence; format: in vivo, Amaranthus retroflexus; settings: 0 to 100 scale (0 no effect, 100 complete control)
# Procedure, shortened: as §1
# velvetleaf [6] = experiment: Test A preemergence; format: in vivo, Abutilon theophrasti; settings: 0 to 100 scale (0 no effect, 100 complete control)
# Procedure, shortened: as §1
# wheat [7] = experiment: Test A preemergence; format: in vivo, Triticum aestivum; settings: 0 to 100 scale (0 no effect, 100 complete control)
# Procedure, shortened: as §1
# corn [8] = experiment: Test A preemergence; format: in vivo, Zea mays; settings: 0 to 100 scale (0 no effect, 100 complete control)
# Procedure, shortened: as §1
# barnyardgrass [9] = experiment: Test A postemergence; format: in vivo, Echinochloa crus-galli; settings: 0 to 100 scale (0 no effect, 100 complete control), approx. 10 d
# Procedure, shortened: as §1
# crabgrass, large [10] = experiment: Test A postemergence; format: in vivo, Digitaria sanguinalis; settings: 0 to 100 scale (0 no effect, 100 complete control), approx. 10 d
# Procedure, shortened: as §1
# foxtail, giant [11] = experiment: Test A postemergence; format: in vivo, Setaria faberii; settings: 0 to 100 scale (0 no effect, 100 complete control), approx. 10 d
# Procedure, shortened: as §1
# morningglory [12] = experiment: Test A postemergence; format: in vivo, Ipomoea spp.; settings: 0 to 100 scale (0 no effect, 100 complete control), approx. 10 d
# Procedure, shortened: as §1
# pigweed [13] = experiment: Test A postemergence; format: in vivo, Amaranthus retroflexus; settings: 0 to 100 scale (0 no effect, 100 complete control), approx. 10 d
# Procedure, shortened: as §1
# velvetleaf [14] = experiment: Test A postemergence; format: in vivo, Abutilon theophrasti; settings: 0 to 100 scale (0 no effect, 100 complete control), approx. 10 d
# Procedure, shortened: as §1
# wheat [15] = experiment: Test A postemergence; format: in vivo, Triticum aestivum; settings: 0 to 100 scale (0 no effect, 100 complete control), approx. 10 d
# Procedure, shortened: as §1
# corn [16] = experiment: Test A postemergence; format: in vivo, Zea mays; settings: 0 to 100 scale (0 no effect, 100 complete control), approx. 10 d
# Procedure, shortened: as §1
# rice = experiment: Test B flooded paddy test; format: in vivo, Oryza sativa; settings: 125 g ai/ha, applied to paddy water at 2-leaf stage, visual rating after 13 to 15 d, scale 0 (no effect) to 100 (complete control)
# Procedure, shortened: (§2)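 Pots were flooded to 3 cm above the soil at treatment, and compounds were applied directly into the paddy water. That depth was held throughout. After 13 to 15 d in a greenhouse, plants were rated visually against untreated controls.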
# sedge, umbrella = experiment: Test B flooded paddy test; format: in vivo, Cyperus difformis; settings: 125 g ai/ha, applied to paddy water at 2-leaf stage, visual rating after 13 to 15 d, scale 0 (no effect) to 100 (complete control)
# Procedure, shortened: as §2
# ducksalad = experiment: Test B flooded paddy test; format: in vivo, Heteranthera limosa; settings: 125 g ai/ha, applied to paddy water at 2-leaf stage, visual rating after 13 to 15 d, scale 0 (no effect) to 100 (complete control)
# Procedure, shortened: as §2
# barnyardgrass [17] = experiment: Test B flooded paddy test; format: in vivo, Echinochloa crus-galli; settings: 125 g ai/ha, applied to paddy water at 2-leaf stage, visual rating after 13 to 15 d, scale 0 (no effect) to 100 (complete control)
# Procedure, shortened: as §2
SMILES,"Plant response rating, Barnyardgrass (barnyardgrass [1]; 125 g ai/ha)","Plant response rating, Barnyardgrass (barnyardgrass [1]; 500 g ai/ha, approx. 10 d)","Plant response rating, Crabgrass, Large (crabgrass, large [2]; 125 g ai/ha)","Plant response rating, Crabgrass, Large (crabgrass, large [2]; 500 g ai/ha, approx. 10 d)","Plant response rating, Foxtail, Giant (foxtail, giant [3]; 125 g ai/ha)","Plant response rating, Foxtail, Giant (foxtail, giant [3]; 500 g ai/ha, approx. 10 d)","Plant response rating, Morningglory (morningglory [4]; 125 g ai/ha)","Plant response rating, Morningglory (morningglory [4]; 500 g ai/ha, approx. 10 d)","Plant response rating, Pigweed (pigweed [5]; 125 g ai/ha)","Plant response rating, Pigweed (pigweed [5]; 500 g ai/ha, approx. 10 d)","Plant response rating, Velvetleaf (velvetleaf [6]; 125 g ai/ha)","Plant response rating, Velvetleaf (velvetleaf [6]; 500 g ai/ha, approx. 10 d)","Plant response rating, Wheat (wheat [7]; 125 g ai/ha)","Plant response rating, Wheat (wheat [7]; 500 g ai/ha, approx. 10 d)","Plant response rating, Corn (corn [8]; 125 g ai/ha)","Plant response rating, Corn (corn [8]; 500 g ai/ha, approx. 10 d)","Plant response rating, Barnyardgrass (barnyardgrass [9]; 125 g ai/ha)","Plant response rating, Barnyardgrass (barnyardgrass [9]; 500 g ai/ha)","Plant response rating, Crabgrass, Large (crabgrass, large [10]; 125 g ai/ha)","Plant response rating, Crabgrass, Large (crabgrass, large [10]; 500 g ai/ha)",other results
Cn1nc(-c2ccc(F)cc2)nc1Cc1ccnc(C(F)(F)F)c1 [Compound 13],30,100,100,100,100,100,60,70,100,100,20,80,0,0,0,10,50,90,70,90,"Plant response rating, Foxtail, Giant (foxtail, giant [11]; 125 g ai/ha): 80; Plant response rating, Foxtail, Giant (foxtail, giant [11]; 500 g ai/ha): 90; Plant response rating, Morningglory (morningglory [12]; 125 g ai/ha): 70; Plant response rating, Morningglory (morningglory [12]; 500 g ai/ha): 100; Plant response rating, Pigweed (pigweed [13]; 125 g ai/ha): 100; Plant response rating, Pigweed (pigweed [13]; 500 g ai/ha): 100; Plant response rating, Velvetleaf (velvetleaf [14]; 125 g ai/ha): 70; Plant response rating, Velvetleaf (velvetleaf [14]; 500 g ai/ha): 90; Plant response rating, Wheat (wheat [15]; 125 g ai/ha): 30; Plant response rating, Wheat (wheat [15]; 500 g ai/ha): 40; Plant response rating, Corn (corn [16]; 125 g ai/ha): 30; Plant response rating, Corn (corn [16]; 500 g ai/ha): 60; Plant response rating, Rice, Flood (rice): 0; Plant response rating, Sedge, Umbrella, Flood (sedge, umbrella): 80; Plant response rating, Ducksalad, Flood (ducksalad): 65; Plant response rating, Barnyardgrass, Flood (barnyardgrass [17]): 0"
CCc1nc(-c2ccc(F)cc2)nn1Cc1ccnc(C(F)(F)F)c1 [Compound 2],0,80,100,100,80,100,0,60,100,100,0,40,0,20,0,0,20,90,70,100,"Plant response rating, Foxtail, Giant (foxtail, giant [11]; 125 g ai/ha): 70; Plant response rating, Foxtail, Giant (foxtail, giant [11]; 500 g ai/ha): 90; Plant response rating, Morningglory (morningglory [12]; 125 g ai/ha): 70; Plant response rating, Morningglory (morningglory [12]; 500 g ai/ha): 90; Plant response rating, Pigweed (pigweed [13]; 125 g ai/ha): 100; Plant response rating, Pigweed (pigweed [13]; 500 g ai/ha): 100; Plant response rating, Velvetleaf (velvetleaf [14]; 125 g ai/ha): 30; Plant response rating, Velvetleaf (velvetleaf [14]; 500 g ai/ha): 100; Plant response rating, Wheat (wheat [15]; 125 g ai/ha): 0; Plant response rating, Wheat (wheat [15]; 500 g ai/ha): 70; Plant response rating, Corn (corn [16]; 125 g ai/ha): 20; Plant response rating, Corn (corn [16]; 500 g ai/ha): 90; Plant response rating, Rice, Flood (rice): 20; Plant response rating, Sedge, Umbrella, Flood (sedge, umbrella): 75; Plant response rating, Ducksalad, Flood (ducksalad): 30; Plant response rating, Barnyardgrass, Flood (barnyardgrass [17]): 0"
CCCc1nc(-c2ccc(C(F)(F)F)cc2)nn1Cc1ccnc(C(F)(F)F)c1 [Compound 12],50,80,100,100,100,100,70,90,100,100,70,70,10,30,0,20,30,50,50,90,"Plant response rating, Foxtail, Giant (foxtail, giant [11]; 125 g ai/ha): 70; Plant response rating, Foxtail, Giant (foxtail, giant [11]; 500 g ai/ha): 90; Plant response rating, Morningglory (morningglory [12]; 125 g ai/ha): 70; Plant response rating, Morningglory (morningglory [12]; 500 g ai/ha): 100; Plant response rating, Pigweed (pigweed [13]; 125 g ai/ha): 100; Plant response rating, Pigweed (pigweed [13]; 500 g ai/ha): 100; Plant response rating, Velvetleaf (velvetleaf [14]; 125 g ai/ha): 70; Plant response rating, Velvetleaf (velvetleaf [14]; 500 g ai/ha): 100; Plant response rating, Wheat (wheat [15]; 125 g ai/ha): 30; Plant response rating, Wheat (wheat [15]; 500 g ai/ha): 40; Plant response rating, Corn (corn [16]; 125 g ai/ha): 20; Plant response rating, Corn (corn [16]; 500 g ai/ha): 40; Plant response rating, Rice, Flood (rice): 0; Plant response rating, Sedge, Umbrella, Flood (sedge, umbrella): 0; Plant response rating, Ducksalad, Flood (ducksalad): 0; Plant response rating, Barnyardgrass, Flood (barnyardgrass [17]): 0"

# Reference: patent US10681909B2, “Herbicidal triazoles” (FMC Corporation, priority 2014, dated 2020)
